Experimental data taken from US5380834A, “Immuno-suppressive agent” (Ishihara Sangyo Kaisha Ltd., priority 1992, dated 1995).
Converted amounts (≈) assume the structure as drawn.

Legend:
[1] = tested on: IgGl antibody production from murine spleen B cells; experiment: Effects on the IgGl antibody production from murine spleen cells (LPS + IL4); assay type: cell-based, BALB/c mouse; conditions: Mus musculus, B-cell, 168 h; spleen B cells, LPS 10 μg/ml, IL4 100 U/ml, 7 days, enzyme-immunoassay; read-out: IC50 value, IgGl antibody production
Procedure: (§1) Using murine spleen B cells, the effects of the compound of the formula (I) on the IgGl, IgM and IgE antibody production induced by the stimulation by LPS (lipopolysaccharide; Product No. 520.02051, manufactured by Wako Junyaku) and IL4 (interleukin 4), were studied. Namely, spleen cells of a BALB/c mouse were treated with a murine anti-Thy-1 antibody (obtained from Chiba University) and a rabbit complement (Product No. 3051, manufactured by cedarlane) to remove T cells, and 3×10^5 spleen B cells were cultured for 7 days together with 10 μg/ml of LPS, 100 U/ml of mouse-recombinant IL4 (Product No. MIL-4C, manufactured by Genzyme) and each concentration (from […]) of the compound of the formula (I) on a microplate with 96 wells by a 10% FCS-RPMI solution (in an incubator, 5% CO2, at 37° C.).
(§2) For the basic procedure of this test, reference was made to The Journal of Immunology, Vol. 136, p. 4538, (1986).
(§3) The amount of each antibody in the cell culture supernatant hereby obtained, was measured by the following enzyme-immunoassay. Firstly, on a microplate with 96 wells, 1 μg/ml of a rabbit anti-mouse IgGl antibody (Product No. 36243, manufactured by Cappel), 1 μg/ml of a goat anti-mouse IgM antibody (Product No. 0611-0201, manufactured by Cappel) or 10 μg/ml of a rat anti-mouse IgE monoclonal antibody (Product No. LO-ME-2, manufactured by Experimental Immunology) was coated (50 μl/well, at room temperature for 60 minutes), and then a nonspecific bond was blocked by a 0.1% bovine serum albumin-containing 10 mM sodium phosphate buffer (pH 7.2) (at room temperature for 60 minutes). Then, the above-mentioned cell culture supernatant or its diluted solution was added in an amount of 50 μl/well and reacted at room temperature for 60 minutes. Further, an alkaline phosphatase-labeled rabbit anti-mouse IgGl antibody (Product No. 61-0122, manufactured by Zymet) diluted 1,000 times, an alkaline phosphatase-labeled rabbit anti-mouse IgM antibody (Product No. 61-6822, manufactured by Zymet) diluted 2,000 times, or an alkaline phosphatase-labeled goat anti-mouse IgE antibody (Product No. PA-284, manufactured by Binding Site) diluted 500 times was added in an amount of 50 μl/well and reacted at room temperature for 60 minutes. 100 μl/well of a 10% diethanol amine buffer solution (pH 9.8) containing p-nitrophenyl phosphate as an enzyme substrate, was reacted, and the absorbance at 405 nm was measured. The amount of each antibody was calculated from the calibration curve of each standard antibody, and the IC50 value of the compound of the formula (I) on the antibody production was calculated using as the control value a value obtained in the absence of the compound of the formula (I).

murine thymocytes = experiment: Effects on the mitogenic response by murine thymocytes (Con A stimulation, 3H-TdR uptake); assay type: cell-based, BALB/c murine; conditions: Mus musculus, Thymocyte; BALB/c thymocytes, Con A 5 μg/ml, 48 hours, 3H-TdR uptake; read-out: IC50 value, a (mitogenic response of murine thymocytes)
Procedure: Using BALB/c murine thymocytes, the effect of the compound of the formula (I) on the mitogenic response of lymphocytes to the stimulation by concanavalin A (hereinafter referred to simply as Con A, Product No. L-1000, manufactured by Vector Laboratories) was studied. Namely, 4×10^5 murine thymocytes were cultured for 48 hours on a microplate with 96 wells in a RPMI1640 solution containing 10% of a fetal bovine serum (hereinafter referred to simply as a 10% FCS-RPMI solution) together with Con A (5 μg/ml) and the compound of the formula (I) (in an incubator, 5% CO2, at 37° C.). Then, 0.5 μCi of ^3 H-thymidine (hereinafter referred to simply as ^3 H-TdR) was added thereto, and the mixture was further cultured for 4 hours. Then, cells were collected by a cell harvester, and the radioactivity (dpm) of ^3 H-TdR uptaken into cells was measured. Such measured amounts of ^3 H-TdR uptaken into the cells were used as indices of the mitogenic response of the murine thymocytes, and the radioactivity at each concentration (from 0.001 to 1,000 μg/ml) of the compound of the formula (I) was compared with the control value treated solely by Con A, to calculate IC50 value. In these Tables 12 and 13, the results of murine thymocytes are shown by (a).
For the basic procedure of this test, reference was made to Selected methods in cellular immunology, p. 144-146 (translated by Katsuyuki Imai et al., published by Rikogakusha, (1982)).

[2] = tested on: murine mixed lymphocyte reaction (spleen cells of BALB/c and C57BL/6 mice); experiment: Effects on the murine mixed lymphocyte reaction (3H-TdR uptake); assay type: cell-based; conditions: Mus musculus, BALB/c + C57BL/6 spleen cells, 48 hours, read-out: IC50 value, b (murine mixed lymphocyte reaction)
Procedure: Using spleen cells of BALB/c and C57BL/6 mice, the effect of the compound of the formula (I) on the murine mixed lymphocyte reaction in both sides, was studied. Namely, spleen cells of both types of mice were mixed in an equal amount of 5×10^5 cells each, and the mixed cells were cultured together with the compound of the formula (I) for 48 hours on a microplate with 96 wells by a 10% FCS-RPMI solution (in an incubator, 5% CO2, at 37° C.). Then, 0.5 μCi of ^3 H-TdR was added thereto, and the mixture was further cultured for from 16 to 18 hours. Then, cells were collected by a cell harvester, and the radioactivity (dpm) of ^3 H-TdR uptaken into the cells, was measured. Such measured amounts of ^3 H-TdR uptaken into the cells were used as indices for the mixed lymphocyte reaction, and the radioactivity at each concentration (from 0.001 to 1,000 μg/ml) of the compound of the formula (I) was compared with the non-treated control value, to calculate the Ic50 value.
For the basic procedure for this test, reference was made to Selected methods in cellular immunology, p. 147-149 (translated by Katsuyuki Imai et al., published by Rikogakusha, (1982)).

murine bone mallow cells = experiment: Effects on the murine bone mallow cells (proliferation, 3H-TdR uptake); assay type: cell-based, BALB/c mouse; conditions: Mus musculus, bone marrow cells; 20% L929 culture supernatant, 48 hours, 3H-TdR uptake; Tables 12-15; read-out: IC50 value, c (murine bone mallow cells)
Procedure: Bone mallow cells were removed from the femur of a BALB/c mouse and suspended in a 10% FCS-RPMI solution. The cell suspension was put into a plastic Petri dish having a diameter of 10 cm and left to stand still (in an incubator, 5% CO2, at 37° C.). Two hours later, only floating cells were recovered, and adhesion cells were removed. 1×10^5 floating cells were cultured for 48 hours together with a 20% culture supernatant of L929 fibroblastoma and the compound of the formula (I) on a microplate with 96 wells by a 10% FCS-RPMI solution (in an incubator, 5% CO2, at 37° C.). Then, 0.5 μCi of ^3 H-TdR was added thereto, and the mixture was further cultured for 4 hours. Then, cells were collected by a cell harvester, and the radioactivity (dpm) of ^3 H-TdR uptaken into the cells, was measured. Such measured amounts of ^3 H-TdR uptaken into the cells were used as indices for the proliferation of bone mallow cells, and the radioactivity at each concentration (from 0.001 to 1,000 μg/ml) of the compound of the formula (I) was compared with the control value where the L929 culture supernatant was added alone, to calculate the IC50 value. In these Tables 12 and 13, the results of the bone mallow cells are shown by (c).
For the basic procedure of this test, reference was made to Seikagakujikken Koza compiled by Japan Biochemistry Association, Vol. 5, p. 266-270 (published by Tokyo Kagaku Dojin in 1986).

[3] = tested on: IgE antibody production from murine spleen B cells; experiment: Effects on the IgE antibody production from murine spleen cells (LPS + IL4); assay type: cell-based, BALB/c mouse; conditions: Mus musculus, B-cell, 168 h; spleen B cells, LPS 10 μg/ml, IL4 100 U/ml, 7 days, enzyme-immunoassay; read-out: IC50 value, IgE antibody production
Procedure: as §1, §2, §3

[4] = tested on: IgM antibody production from murine spleen B cells; experiment: Effects on the IgM antibody production from murine spleen cells (LPS + IL4); assay type: cell-based, BALB/c mouse; conditions: Mus musculus, B-cell, 168 h; spleen B cells, LPS 10 μg/ml, IL4 100 U/ml, 7 days, enzyme-immunoassay; read-out: IC50 value, IgM antibody production
Procedure: as §1, §2, §3

Row | SMILES | IC50 [1] [µg/mL] | IC50 (murine thymocytes) [µg/mL] | IC50 [2] [µg/mL] | IC50 (murine bone mallow cells) [µg/mL] | IC50 [3] [µg/mL] | IC50 [4] [µg/mL]
1 | CC(=O)Oc1ccccc1C(=O)O[C@H]1C=C[C@H]2CO[C@@H]1O2 [Compound 11] | 16 | 110 (≈ 379 µM) | 170 | 210 (≈ 723 µM) | 32 | 28
2 | CCCCCCCCCC(=O)O[C@H]1C=C[C@H]2CO[C@@H]1O2 [Compound 12, 1,6-anhydro-2-O-decanoyl-3,4-dideoxy-β-D-threo-hex-3-enopyranose] | 24 | 110 (≈ 390 µM) | 560 | 560 (≈ 1980 µM) | 28 | 0.11
3 | O=C(CCCCCBr)O[C@H]1C=C[C@H]2CO[C@@H]1O2 [Compound 13] | < 0.001 | 33 (≈ 108 µM) | 190 | 330 (≈ 1080 µM) | 0.32 | < 0.001
4 | O=C(O[C@H]1C=C[C@H]2CO[C@@H]1O2)c1cccs1 [Compound 14] | 10 | 42 (≈ 176 µM) | 13 | 500 (≈ 2100 µM) | 3.7 | 0.89
5 | O=C(O[C@H]1C=C[C@H]2CO[C@@H]1O2)c1cccnc1 [Compound 15] | 220 | 130 (≈ 557 µM) | 480 | 310 (≈ 1330 µM) | 320 | 78
6 | O=C(O[C@H]1C=C[C@H]2CO[C@@H]1O2)c1ccc(Cl)cc1 [Compound 16] | 41 | 91 (≈ 341 µM) | 190 | 170 (≈ 637 µM) | 50 | 20
7 | CCCCCCCCCCCCCCCCCCCC(=O)O[C@H]1C=C[C@H]2CO[C@@H]1O2 [Compound 20] | 5.2 | 150 (≈ 355 µM) | 240 | 400 (≈ 946 µM) | 3.2 | 500
8 | O=C(Oc1ccccc1)O[C@H]1C=C[C@H]2CO[C@@H]1O2 [Compound 22] | 670 | 300 (≈ 1210 µM) | 130 | > 1000 | 4 | 230
9 | O=C(Nc1ccccc1)O[C@H]1C=C[C@H]2CO[C@@H]1O2 [Compound 23, 1,6-anhydro-3,4-dideoxy-2-O-phenylcarbamoyl-β-D-threo-hex-3-enopyranose] | 72 | 95 (≈ 384 µM) | 170 | 49 (≈ 198 µM) | 43 | 69
10 | CNC(=S)O[C@H]1C=C[C@H]2CO[C@@H]1O2 [Compound 24, 1,6-anhydro-3,4-dideoxy-2-O-methylthiocarbamoyl-β-D-threo-hex-3-enopyranose] | 17 | 170 (≈ 845 µM) | 100 | 620 (≈ 3080 µM) | 0.22 | 10
11 | CC(C)(C)NC(=O)O[C@H]1C=C[C@H]2CO[C@@H]1O2 [Compound 25] | 0.0015 | 0.32 (≈ 1.41 µM) | 430 | 340 (≈ 1500 µM) | 0.0034 | 78
12 | S=C(Oc1ccccc1)O[C@H]1C=C[C@H]2CO[C@@H]1O2 [Compound 26] | 23 | 44 (≈ 166 µM) | 20 | 200 (≈ 757 µM) | 4.5 | 110
13 | C=C[C@]1(O)C=C[C@H]2CO[C@@H]1O2 [Compound 27, 1,6-anhydro-3,4-dideoxy-2-C-vinyl-β-D-threo-hex-3-enopyranose] | 34 | 49 (≈ 318 µM) | 180 | 44 (≈ 285 µM) | 24 | 36
